Measurements: US20210122730A1, “GLUCOCORTICOID RECEPTOR MODULATORS” (ORIC Pharmaceuticals, Inc., priority 2017, published 2021)

Biological target: T1, GR (Homo sapiens, UniProt P04150)
T1 construct: expressed in transfected cells; host or cells: CHO-K1
T1 sequence (P04150 1-777): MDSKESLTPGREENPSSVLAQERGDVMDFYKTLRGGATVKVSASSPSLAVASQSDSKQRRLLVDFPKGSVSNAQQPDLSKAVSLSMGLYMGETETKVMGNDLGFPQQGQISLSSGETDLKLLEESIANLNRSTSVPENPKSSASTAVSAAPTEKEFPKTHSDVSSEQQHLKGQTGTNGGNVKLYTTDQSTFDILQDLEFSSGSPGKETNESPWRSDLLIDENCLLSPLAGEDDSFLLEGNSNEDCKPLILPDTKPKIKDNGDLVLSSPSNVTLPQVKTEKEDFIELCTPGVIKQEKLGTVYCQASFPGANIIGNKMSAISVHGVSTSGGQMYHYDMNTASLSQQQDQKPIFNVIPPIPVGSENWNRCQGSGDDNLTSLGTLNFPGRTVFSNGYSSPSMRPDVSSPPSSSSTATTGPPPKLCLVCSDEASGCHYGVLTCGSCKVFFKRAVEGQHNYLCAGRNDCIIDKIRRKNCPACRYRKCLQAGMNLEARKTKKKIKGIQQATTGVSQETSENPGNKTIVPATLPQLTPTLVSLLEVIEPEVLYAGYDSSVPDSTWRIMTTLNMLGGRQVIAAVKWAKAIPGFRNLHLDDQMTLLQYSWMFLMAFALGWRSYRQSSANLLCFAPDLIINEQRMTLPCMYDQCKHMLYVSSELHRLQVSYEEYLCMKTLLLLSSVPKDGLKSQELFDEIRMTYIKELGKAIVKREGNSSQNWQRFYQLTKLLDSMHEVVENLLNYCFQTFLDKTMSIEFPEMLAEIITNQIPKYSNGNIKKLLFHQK
Assay: In Vitro GR Luciferase Reporter Assay (antagonist mode, CHO-K1-GR-MMTV-Luc reporter cells)
Type: cell-based
Conditions: antagonist mode, 10 nM Dexamethasone
Outline: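 Antagonist mode: compounds (8 serial 1:5 dilutions) added to GR-MMTV-luciferase CHO-K1 reporter cells co-exposed to 10 nM dexamethasone final, in phenol red-free DMEM plus 10% CSS. After roughly 18-24 h at 37° C, OneGlo luminescence read and IC50 calculated.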

SMILES: Cn1cc(C(=O)N(C2CC2)[C@H]2CCC3=Cc4c(cnn4-c4ccc(F)cc4)C[C@]3(C(=O)c3ncc(C(F)(F)F)s3)C2)cn1 [Example 188, N-cyclopropyl-N-((4aS,6S)-1-(4-fluorophenyl)-4a-(5 (trifluoromethyl)thiazole-2-carbonyl)-4,4a,5,6,7,8-hexahydro-1H-benzo[f]indazol-6-yl)-1-methyl-1H-pyrazole-4-carboxamide]
- IC50: ≤ 0.1 µM

SMILES: Cn1cc(S(=O)(=O)[C@H]2CCC3=Cc4c(cnn4-c4ccc(F)cc4)C[C@]3(C(=O)c3ncc(C(F)(F)F)s3)C2)cn1 [Example 190, ((4aS,6S)-1-(4-fluorophenyl)-6-((1-methyl-1H-pyrazol-4-yl)sulfonyl)-1,4,5,6,7,8-hexahydro-4aH-benzo[f]indazol-4a-yl)(5-(trifluoromethyl)thiazol-2-yl)methanone]
- IC50: ≤ 0.1 µM

SMILES: CC(C)N([C@H]1CCC2=Cc3c(cnn3-c3ccc(F)cc3)C[C@]2(C(=O)c2ncc(C3CC3)s2)C1)S(=O)(=O)c1cnn(C)c1 [Example 192, N-((4aS,6S)-4a-(5-cyclopropylthiazole-2-carbonyl)-1-(4-fluorophenyl)-4,4a,5,6,7,8-hexahydro-1H-benzo[f]indazol-6-yl)-N-isopropyl-1-methyl-1H-pyrazole-4-sulfonamide]
- IC50: ≤ 0.1 µM

SMILES: Cn1ccc(C(=O)N(C2CC2)[C@H]2CCC3=Cc4c(cnn4-c4ccc(F)cc4)C[C@]3(C(=O)c3cc(C(F)(F)F)ccn3)C2)n1 [Example 197, N-cyclopropyl-N-((4aS,6S)-1-(4-fluorophenyl)-4a-(4-(trifluoromethyl)picolinoyl)-4,4a,5,6,7,8-hexahydro-1H-benzo[f]indazol-6-yl)-1-methyl-1H-pyrazole-3-carboxamide]
- IC50: ≤ 0.1 µM

SMILES: Cn1ncc(S(=O)(=O)N(CC2CC2)[C@H]2CCC3=Cc4c(cnn4-c4ccc(F)cc4)C[C@]3(C(=O)c3cc(C(F)(F)F)ccn3)C2)n1 [Example 200, N-(cyclopropylmethyl)-N-((4aS,6S)-1-(4-fluorophenyl)-4a-(4-(trifluoromethyl)picolinoyl)-4,4a,5,6,7,8-hexahydro-1H-benzo[f]indazol-6-yl)-2-methyl-2H-1,2,3-triazole-4-sulfonamide]
- IC50: ≤ 0.1 µM

SMILES: O=C(c1ncc(C(F)(F)F)s1)[C@]12Cc3cnn(-c4ccc(F)cc4)c3C=C1CC[C@H](N(C1COC1)S(=O)(=O)c1ccc(F)cc1)C2 [Example 205, 4-fluoro-N-((4aS,6S)-1-(4-fluorophenyl)-4a-(5-(trifluoromethyl)thiazole-2-carbonyl)-4,4a,5,6,7,8-hexahydro-1H-benzo[f]indazol-6-yl)-N-(oxetan-3-yl)benzenesulfonamide]
- IC50: ≤ 0.1 µM

SMILES: Cn1cc(S(=O)(=O)N(C2COC2)[C@H]2CCC3=Cc4c(cnn4-c4ccc(F)cc4)C[C@]3(C(=O)c3ncc(C(F)(F)F)s3)C2)cn1 [Example 207, N-((4aS,6S)-1-(4-fluorophenyl)-4a-(5-(trifluoromethyl)thiazole-2-carbonyl)-4,4a,5,6,7,8-hexahydro-1H-benzo[f]indazol-6-yl)-1-methyl-N-(oxetan-3-yl)-1H-pyrazole-4-sulfonamide]
- IC50: ≤ 0.1 µM

SMILES: CC(C)N([C@H]1CCC2=Cc3c(cnn3-c3ccc(F)cc3)C[C@]2(C(=O)c2ncc(C(F)(F)F)s2)C1)S(=O)(=O)c1ccc(Cl)cc1 [Example 208, 4-chloro-N-((4aS,6S)-1-(4-fluorophenyl)-4a-(5-(trifluoromethyl)thiazole-2-carbonyl)-4,4a,5,6,7,8-hexahydro-1H-benzo[f]indazol-6-yl)-N-isopropylbenzenesulfonamide]
- IC50: ≤ 0.1 µM

SMILES: CC(C)N([C@H]1CCC2=Cc3c(cnn3-c3ccc(F)cc3)C[C@]2(C(=O)c2ncc(C(F)(F)F)s2)C1)S(=O)(=O)c1ccc(F)cc1 [Example 209, 4-fluoro-N-((4aS,6S)-1-(4-fluorophenyl)-4a-(5-(trifluoromethyl)thiazole-2-carbonyl)-4,4a,5,6,7,8-hexahydro-1H-benzo[f]indazol-6-yl)-N-isopropylbenzenesulfonamide]
- IC50: ≤ 0.1 µM

SMILES: Cn1cc(S(=O)(=O)N(C2COC2)[C@H]2CCC3=Cc4c(cnn4-c4ccc(F)cc4)C[C@]3(C(=O)c3cc(C(F)(F)F)ccn3)C2)cn1 [Example 213, N-((4aS,6S)-1-(4-fluorophenyl)-4a-(4-(trifluoromethyl)picolinoyl)-4,4a,5,6,7,8-hexahydro-1H-benzo[f]indazol-6-yl)-1-methyl-N-(oxetan-3-yl)-1H-pyrazole-4-sulfonamide]
- IC50: ≤ 0.1 µM

SMILES: Cn1cc(S(=O)(=O)N(C2COC2)[C@H]2CCC3=Cc4c(cnn4-c4ccc(F)cc4)C[C@]3(C(=O)c3ncc(C(F)(F)F)s3)C2)nn1 [Example 218, N-((4aS,6S)-1-(4-fluorophenyl)-4a-(5-(trifluoromethyl)thiazole-2-carbonyl)-4,4a,5,6,7,8-hexahydro-1H-benzo[f]indazol-6-yl)-1-methyl-N-(oxetan-3-yl)-1H-1,2,3-triazole-4-sulfonamide]
- IC50: ≤ 0.1 µM

SMILES: Cn1cc(S(=O)(=O)N(C2COC2)[C@H]2CCC3=Cc4c(cnn4-c4ccc(F)cc4)C[C@]3(C(=O)c3cc(C(F)(F)F)ccn3)C2)nn1 [Example 220, N-((4aS,6S)-1-(4-fluorophenyl)-4a-(4-(trifluoromethyl)picolinoyl)-4,4a,5,6,7,8-hexahydro-1H-benzo[f]indazol-6-yl)-1-methyl-N-(oxetan-3-yl)-1H-1,2,3-triazole-4-sulfonamide]
- IC50: ≤ 0.1 µM

SMILES: Cn1cc(S(=O)(=O)N(C2CCC2)[C@H]2CCC3=Cc4c(cnn4-c4ccc(F)cc4)C[C@]3(C(=O)c3cc(C(F)(F)F)ccn3)C2)cn1 [Example 235, N-cyclobutyl-N-((4aS,6S)-1-(4-fluorophenyl)-4a-(4-(trifluoromethyl)picolinoyl)-4,4a,5,6,7,8-hexahydro-1H-benzo[f]indazol-6-yl)-1-methyl-1H-pyrazole-4-sulfonamide]
- IC50: ≤ 0.1 µM

SMILES: O=C(c1cc(C(F)(F)F)ccn1)[C@]12Cc3cnn(-c4ccc(F)cc4)c3C=C1CC[C@H](N(C1CCCC1)S(=O)(=O)c1ccc(F)cc1)C2 [Example 237, N-cyclopentyl-4-fluoro-N-((4aS,6S)-1-(4-fluorophenyl)-4a-(4-(trifluoromethyl)picolinoyl)-4,4a,5,6,7,8-hexahydro-1H-benzo[f]indazol-6-yl)benzenesulfonamide]
- IC50: ≤ 0.1 µM

SMILES: Cn1ccc(S(=O)(=O)N(C2CCCC2)[C@H]2CCC3=Cc4c(cnn4-c4ccc(F)cc4)C[C@]3(C(=O)c3cc(C(F)(F)F)ccn3)C2)n1 [Example 238, N-cyclopentyl-N-((4aS,6S)-1-(4-fluorophenyl)-4a-(4-(trifluoromethyl)picolinoyl)-4,4a,5,6,7,8-hexahydro-1H-benzo[f]indazol-6-yl)-1-methyl-1H-pyrazole-3-sulfonamide]
- IC50: ≤ 0.1 µM

SMILES: Cn1ncc(S(=O)(=O)N(C2COC2)[C@H]2CCC3=Cc4c(cnn4-c4ccc(F)cc4)C[C@]3(C(=O)c3cc(C(F)(F)F)ccn3)C2)n1 [Example 239, N-((4aS,6S)-1-(4-fluorophenyl)-4a-(4-(trifluoromethyl)picolinoyl)-4,4a,5,6,7,8-hexahydro-1H-benzo[f]indazol-6-yl)-2-methyl-N-(oxetan-3-yl)-2H-1,2,3-triazole-4-sulfonamide]
- IC50: ≤ 0.1 µM

SMILES: O=C(c1ccc(Cl)cn1)[C@]12Cc3cnn(-c4ccc(F)cc4)c3C=C1CC[C@H](N(C1CC1)S(=O)(=O)c1ccc(F)cc1)C2 [Example 240, N-((4aS,6S)-4a-(5-chloropicolinoyl)-1-(4-fluorophenyl)-4,4a,5,6,7,8-hexahydro-1H-benzo[f]indazol-6-yl)-N-cyclopropyl-4-fluorobenzenesulfonamide]
- IC50: ≤ 0.1 µM

SMILES: CC(C)CN([C@H]1CCC2=Cc3c(cnn3-c3ccc(F)cc3)C[C@]2(C(=O)c2cc(Cl)ccn2)C1)S(=O)(=O)c1ccn(C)n1 [Example 249, N-((4aS,6S)-4a-(4-chloropicolinoyl)-1-(4-fluorophenyl)-4,4a,5,6,7,8-hexahydro-1H-benzo[f]indazol-6-yl)-N-isobutyl-1-methyl-1H-pyrazole-3-sulfonamide]
- IC50: ≤ 0.1 µM

SMILES: CC(C)CN([C@H]1CCC2=Cc3c(cnn3-c3ccc(F)cc3)C[C@]2(C(=O)c2cc(F)ccn2)C1)S(=O)(=O)c1ccn(C)n1 [Example 252, N-((4aS,6S)-1-(4-fluorophenyl)-4a-(4-fluoropicolinoyl)-4,4a,5,6,7,8-hexahydro-1H-benzo[f]indazol-6-yl)-N-isobutyl-1-methyl-1H-pyrazole-3-sulfonamide]
- IC50: ≤ 0.1 µM

SMILES: O=C(c1cc(C(F)(F)F)ccn1)[C@]12Cc3cnn(-c4ccc(F)cc4)c3C=C1CC[C@H](N(C1CCC1)S(=O)(=O)c1ccn(C(F)F)n1)C2 [Example 253, N-cyclobutyl-1-(difluoromethyl)-N-((4aS,6S)-1-(4-fluorophenyl)-4a-(4-(trifluoromethyl)picolinoyl)-4,4a,5,6,7,8-hexahydro-1H-benzo[f]indazol-6-yl)-1H-pyrazole-3-sulfonamide]
- IC50: ≤ 0.1 µM
